Data taken from patent publication US11725012B2, “Imidazo[1,5-a]pyrazine derivatives as PI3K δ inhibitors” (priority 2016, dated 2023).
Read-outs that look alike come from different tables or passages of the source.

Experiments:
Format in all cases: biochemical
PI3K (p110γ) = PI3K (p110γ) (Homo sapiens, UniProt P48736); test: PI3Kγ ADP-Glo kinase assay
[1] = molecular target: recombinant PI3K (p110α/p85α) (Homo sapiens, UniProt P42336); test: PI3Kα ADP-Glo kinase assay
[2] = molecular target: recombinant PI3K (p110δ/p85α) (Homo sapiens, UniProt O00329); test: PI3Kδ ADP-Glo kinase assay
recombinant PI3K (p110δ/p85α), sequence (O00329 whole entry): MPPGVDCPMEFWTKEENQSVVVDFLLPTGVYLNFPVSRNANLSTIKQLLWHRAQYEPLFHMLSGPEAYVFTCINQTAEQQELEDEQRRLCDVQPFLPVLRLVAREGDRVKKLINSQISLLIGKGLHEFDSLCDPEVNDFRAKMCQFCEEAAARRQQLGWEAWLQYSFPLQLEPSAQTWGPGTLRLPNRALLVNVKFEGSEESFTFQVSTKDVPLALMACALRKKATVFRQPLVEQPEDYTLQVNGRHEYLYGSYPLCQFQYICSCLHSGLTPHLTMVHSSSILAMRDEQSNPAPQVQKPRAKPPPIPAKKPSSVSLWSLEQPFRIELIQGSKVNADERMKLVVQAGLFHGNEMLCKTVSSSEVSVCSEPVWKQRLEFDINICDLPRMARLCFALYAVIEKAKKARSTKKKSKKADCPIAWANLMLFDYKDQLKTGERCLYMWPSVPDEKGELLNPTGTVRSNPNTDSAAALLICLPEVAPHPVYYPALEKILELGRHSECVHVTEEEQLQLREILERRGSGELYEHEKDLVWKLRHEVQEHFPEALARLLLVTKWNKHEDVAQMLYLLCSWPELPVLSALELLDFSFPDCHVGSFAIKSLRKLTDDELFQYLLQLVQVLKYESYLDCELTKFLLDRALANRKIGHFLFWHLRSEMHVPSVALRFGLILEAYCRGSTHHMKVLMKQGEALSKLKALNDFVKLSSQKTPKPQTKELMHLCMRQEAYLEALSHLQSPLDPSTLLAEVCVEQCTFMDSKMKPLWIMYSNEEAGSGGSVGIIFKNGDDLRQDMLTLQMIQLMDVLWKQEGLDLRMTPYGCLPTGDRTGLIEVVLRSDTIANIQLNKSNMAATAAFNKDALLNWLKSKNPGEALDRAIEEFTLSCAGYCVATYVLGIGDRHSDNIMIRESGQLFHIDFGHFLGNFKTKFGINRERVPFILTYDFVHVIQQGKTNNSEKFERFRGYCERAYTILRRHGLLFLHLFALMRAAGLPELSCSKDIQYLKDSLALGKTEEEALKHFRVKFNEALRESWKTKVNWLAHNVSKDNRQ
recombinant PI3K (p110δ/p85α), sequence (P27986 whole entry partner): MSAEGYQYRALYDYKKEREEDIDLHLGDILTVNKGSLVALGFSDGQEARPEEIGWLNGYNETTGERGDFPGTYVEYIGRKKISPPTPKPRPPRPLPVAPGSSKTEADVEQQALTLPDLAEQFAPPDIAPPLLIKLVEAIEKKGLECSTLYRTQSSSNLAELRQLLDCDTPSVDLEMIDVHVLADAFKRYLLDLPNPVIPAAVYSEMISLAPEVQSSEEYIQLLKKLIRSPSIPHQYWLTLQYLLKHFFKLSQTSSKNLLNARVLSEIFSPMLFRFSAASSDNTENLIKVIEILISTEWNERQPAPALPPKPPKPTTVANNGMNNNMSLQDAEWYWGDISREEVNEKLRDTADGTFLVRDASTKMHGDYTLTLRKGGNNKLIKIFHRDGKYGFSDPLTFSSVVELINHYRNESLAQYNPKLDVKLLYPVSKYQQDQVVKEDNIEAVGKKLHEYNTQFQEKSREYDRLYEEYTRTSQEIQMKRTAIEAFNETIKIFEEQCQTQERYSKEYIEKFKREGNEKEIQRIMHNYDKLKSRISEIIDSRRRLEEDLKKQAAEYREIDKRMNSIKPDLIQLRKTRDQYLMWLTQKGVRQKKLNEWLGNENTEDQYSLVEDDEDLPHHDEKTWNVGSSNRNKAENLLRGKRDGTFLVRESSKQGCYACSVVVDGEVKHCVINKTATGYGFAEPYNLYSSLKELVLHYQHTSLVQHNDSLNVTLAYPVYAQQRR
Experimental: Compounds disclosed herein were tested for inhibition of PI3Kδ kinase activity using commercial ADP-Glo™ Kinase Assay (Promega Corporation) and following the manufacture's instruction. Briefly, recombinant PI3K (p110δ/p85α) enzyme, lipid kinase substrate and a serial dilution of compounds disclosed herein were incubated for 0.5 hr at room temperature. ATP was added to initiate the kinase reaction. After incubation for 1 hr at room temperature, ADP-Glo™ reagent was added to terminate the kinase reaction and deplete the remaining ATP. After incubation for 1 hr at room temperature, kinase detection reagent was added to simultaneously convert ADP to ATP and allow the newly synthesized ATP to be measured using a luciferase/luciferin reaction. After incubation for 0.5 hr at room temperature, the luminescence generated was measured on a PHERAstar FS plate reader (BMG LABTECH), The residual enzyme activity in presence of increasing concentrations of compounds was calculated based on the luminescence. The IC50 for each compound was derived from fitting the data to the four-parameter logistic equation by Graphpad Prism software.

PI3K (p110β/p85α) = PI3K (p110β/p85α) (Homo sapiens, UniProt P42338); test: PI3Kβ ADP-Glo kinase assay
PI3K (p110β/p85α), sequence (P42338 whole entry): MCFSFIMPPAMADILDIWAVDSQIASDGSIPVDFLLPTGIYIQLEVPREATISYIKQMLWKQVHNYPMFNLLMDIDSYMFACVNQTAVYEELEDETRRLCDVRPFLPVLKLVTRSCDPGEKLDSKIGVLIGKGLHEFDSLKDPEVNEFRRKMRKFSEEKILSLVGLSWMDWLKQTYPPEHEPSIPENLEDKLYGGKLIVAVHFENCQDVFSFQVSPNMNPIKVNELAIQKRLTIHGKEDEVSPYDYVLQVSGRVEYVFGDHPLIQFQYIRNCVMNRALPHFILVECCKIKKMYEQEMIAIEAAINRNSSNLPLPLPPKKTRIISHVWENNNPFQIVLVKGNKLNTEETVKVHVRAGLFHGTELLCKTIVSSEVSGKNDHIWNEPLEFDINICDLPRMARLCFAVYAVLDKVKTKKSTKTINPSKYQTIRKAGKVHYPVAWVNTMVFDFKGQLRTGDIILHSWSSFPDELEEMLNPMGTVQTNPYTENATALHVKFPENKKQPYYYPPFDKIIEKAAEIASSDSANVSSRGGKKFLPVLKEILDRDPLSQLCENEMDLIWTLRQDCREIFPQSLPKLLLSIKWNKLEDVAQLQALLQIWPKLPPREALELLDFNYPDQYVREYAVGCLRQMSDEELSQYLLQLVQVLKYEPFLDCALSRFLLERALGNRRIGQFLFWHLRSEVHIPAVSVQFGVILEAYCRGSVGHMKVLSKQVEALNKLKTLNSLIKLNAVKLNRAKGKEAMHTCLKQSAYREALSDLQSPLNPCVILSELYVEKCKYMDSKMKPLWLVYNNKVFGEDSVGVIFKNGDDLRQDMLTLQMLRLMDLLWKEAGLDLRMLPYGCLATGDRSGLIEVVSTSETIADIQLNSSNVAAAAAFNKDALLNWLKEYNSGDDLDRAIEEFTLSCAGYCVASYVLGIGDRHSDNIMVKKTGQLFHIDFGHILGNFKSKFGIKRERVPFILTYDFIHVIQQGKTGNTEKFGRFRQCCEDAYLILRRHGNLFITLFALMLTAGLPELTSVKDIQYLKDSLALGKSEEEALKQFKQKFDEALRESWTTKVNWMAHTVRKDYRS
PI3K (p110β/p85α), sequence (P27986 whole entry partner): as the sequence (P27986 whole entry partner) above

[3] = read-out: PI3Kγ Enzyme activity IC50
[4] = read-out: PI3Kα Enzyme activity IC50
[5] = read-out: PI3Kδ Enzyme activity IC50
[6] = read-out: PI3Kβ Enzyme activity IC50

PI3K (p110γ), sequence (P48736 whole entry): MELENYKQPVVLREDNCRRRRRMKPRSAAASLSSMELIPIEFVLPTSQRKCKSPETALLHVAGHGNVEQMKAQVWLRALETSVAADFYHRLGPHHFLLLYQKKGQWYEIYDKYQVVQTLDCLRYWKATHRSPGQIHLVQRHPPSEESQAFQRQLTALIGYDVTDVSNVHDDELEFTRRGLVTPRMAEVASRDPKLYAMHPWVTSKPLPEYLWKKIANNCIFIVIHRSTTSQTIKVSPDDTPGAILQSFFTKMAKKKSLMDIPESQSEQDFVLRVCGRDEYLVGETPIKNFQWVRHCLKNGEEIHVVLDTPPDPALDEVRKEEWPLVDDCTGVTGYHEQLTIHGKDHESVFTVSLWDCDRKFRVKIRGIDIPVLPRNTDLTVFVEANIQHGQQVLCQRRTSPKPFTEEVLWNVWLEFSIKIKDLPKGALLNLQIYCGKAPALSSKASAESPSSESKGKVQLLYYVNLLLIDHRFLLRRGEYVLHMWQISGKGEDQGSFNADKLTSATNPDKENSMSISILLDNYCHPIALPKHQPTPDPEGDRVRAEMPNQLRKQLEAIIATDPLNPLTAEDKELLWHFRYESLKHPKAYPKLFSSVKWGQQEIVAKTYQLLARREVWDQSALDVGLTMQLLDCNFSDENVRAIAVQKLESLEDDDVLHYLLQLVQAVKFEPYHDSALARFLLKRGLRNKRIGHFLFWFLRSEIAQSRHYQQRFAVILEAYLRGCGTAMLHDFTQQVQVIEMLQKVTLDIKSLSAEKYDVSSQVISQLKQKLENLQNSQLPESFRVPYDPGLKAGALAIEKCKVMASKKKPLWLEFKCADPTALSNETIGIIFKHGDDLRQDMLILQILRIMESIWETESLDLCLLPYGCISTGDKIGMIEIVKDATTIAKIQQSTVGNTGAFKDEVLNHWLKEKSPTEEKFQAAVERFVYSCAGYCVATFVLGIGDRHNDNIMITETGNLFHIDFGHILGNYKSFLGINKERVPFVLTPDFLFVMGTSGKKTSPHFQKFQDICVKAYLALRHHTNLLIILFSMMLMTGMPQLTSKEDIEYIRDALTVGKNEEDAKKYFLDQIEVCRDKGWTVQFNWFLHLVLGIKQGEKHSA
recombinant PI3K (p110α/p85α), sequence (P42336 whole entry): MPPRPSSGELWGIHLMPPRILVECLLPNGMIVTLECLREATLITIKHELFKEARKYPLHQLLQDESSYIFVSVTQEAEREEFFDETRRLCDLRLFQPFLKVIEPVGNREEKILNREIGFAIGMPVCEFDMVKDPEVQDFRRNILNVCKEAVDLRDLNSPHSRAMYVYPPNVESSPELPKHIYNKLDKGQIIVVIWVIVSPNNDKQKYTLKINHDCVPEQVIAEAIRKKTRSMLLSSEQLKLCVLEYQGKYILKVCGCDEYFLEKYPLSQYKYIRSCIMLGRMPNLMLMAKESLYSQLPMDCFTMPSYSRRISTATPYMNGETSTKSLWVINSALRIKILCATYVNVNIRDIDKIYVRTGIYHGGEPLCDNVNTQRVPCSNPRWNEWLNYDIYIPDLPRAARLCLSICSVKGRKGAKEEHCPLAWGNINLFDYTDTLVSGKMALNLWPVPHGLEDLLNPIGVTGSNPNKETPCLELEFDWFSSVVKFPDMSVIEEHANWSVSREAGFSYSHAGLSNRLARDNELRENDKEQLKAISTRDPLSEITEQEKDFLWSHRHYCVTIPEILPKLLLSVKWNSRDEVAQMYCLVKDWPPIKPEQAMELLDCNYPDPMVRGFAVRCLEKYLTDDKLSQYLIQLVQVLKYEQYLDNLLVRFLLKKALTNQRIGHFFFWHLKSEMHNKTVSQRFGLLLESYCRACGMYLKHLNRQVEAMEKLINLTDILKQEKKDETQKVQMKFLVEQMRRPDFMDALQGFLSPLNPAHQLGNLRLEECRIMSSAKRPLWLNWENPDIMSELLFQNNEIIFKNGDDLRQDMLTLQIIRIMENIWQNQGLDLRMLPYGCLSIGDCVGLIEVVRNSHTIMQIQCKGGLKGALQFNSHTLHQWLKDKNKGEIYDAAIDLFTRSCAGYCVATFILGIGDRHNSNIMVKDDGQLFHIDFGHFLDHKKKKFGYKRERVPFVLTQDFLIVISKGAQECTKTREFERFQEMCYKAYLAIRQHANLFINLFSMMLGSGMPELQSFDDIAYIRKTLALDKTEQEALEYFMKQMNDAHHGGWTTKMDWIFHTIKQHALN
recombinant PI3K (p110α/p85α), sequence (P27986 whole entry partner): as the sequence (P27986 whole entry partner) above

Row | Compound | IC50 (PI3K (p110γ); [3]) | IC50 [1, 4] | IC50 [2, 5] | IC50 (PI3K (p110β/p85α); [6]) | IC50 (PI3K (p110γ); PI3Kγ Enzyme activity IC50) | IC50 ([1]; PI3Kα Enzyme activity IC50) | IC50 ([2]; PI3Kδ Enzyme activity IC50) | IC50 (PI3K (p110β/p85α); PI3Kβ Enzyme activity IC50) | inhibition at 0.5 µM (PI3K (p110γ); read-out: PI3Kγ max inhibition (%) at 0.5 μM) | inhibition at 0.5 µM ([1]; read-out: PI3Kα max inhibition (%) at 0.5 μM) | inhibition at 0.5 µM (PI3K (p110β/p85α); read-out: PI3Kβ max inhibition (%) at 0.5 μM)
1 | CCOc1c(C(C)c2nc(Cl)c3c(N)nccn23)cc(Cl)c(C)c1N1CCOCC1 (single isomer, unassigned) [Compound 51A, 1-chloro-3-(1-(5-chloro-2-ethoxy-4-methyl-3-morpholinophenyl)ethyl)imidazo[1,5-a]pyrazin-8-amine] | 1200 nM | 2100 nM | 0.79 nM | 480 nM |  |  |  |  |  |  | 
2 | Cc1nc(C(C)c2cc(Cl)c(F)c(-c3ccc(C#N)nc3)c2OC(C)C)n2ccnc(N)c12 (single isomer, unassigned) [Compound 59A, 5-(3-(1-(8-amino-1-methylimidazo[1,5-a]pyrazin-3-yl)ethyl)-5-chloro-6-fluoro-2-isopropoxyphenyl)picolinonitrile] | 2700 nM | 6300 nM | 1.2 nM | 1400 nM |  |  |  |  |  |  | 
3 | CCOc1c(C(C)c2nc(Cl)c3c(N)nccn23)cc(Cl)c(C)c1-c1ccc(C)nc1 (stereo not shown) [Compound 8, 1-chloro-3-(1-(5-chloro-2-ethoxy-4-methyl-3-(6-methylpyridin-3-yl)phenyl)ethyl) imidazo[1,5-a]pyrazin-8-amine] | 260 nM | 1400 nM | 1.1 nM | 350 nM |  |  |  |  |  |  | 
4 | CCOc1c([C@H](C)c2nc(Cl)c3c(N)nccn23)cc(Cl)c(C)c1-c1ccc(C)nc1 [Compound 8A] | 300 nM | 1300 nM | 0.51 nM | 580 nM |  |  |  |  |  |  | 
5 | CCOc1c(C(C)c2nc(-c3cccc(O)c3)c3c(N)nccn23)cc(Cl)c(C)c1-c1ccc(C(F)(F)F)nc1 (stereo not shown) [Compound 10, 3-(8-amino-3-(1-(5-chloro-2-ethoxy-4-methyl-3-(6-(trifluoromethyl)pyridin-3-yl)phenyl)ethyl)imidazo[1,5-a]pyrazin-1-yl)phenol] | 1500 nM | 3200 nM | 9.1 nM | 2700 nM |  |  |  |  |  |  | 
6 | CCOc1c([C@H](C)c2nc(Cl)c3c(N)nccn23)cc(Cl)c(C)c1-c1ccc(C(=O)N(C)C)nc1 [Compound 11, (S)-5-(3-(1-(8-amino-1-chloroimidazo[1,5-a]pyrazin-3-yl)ethyl)-5-chloro-2-ethoxy-6-methylphenyl)-N,N-dimethylpicolinamide] | 190 nM | 540 nM | 0.54 nM | 360 nM |  |  |  |  |  |  | 
7 | CCOc1c([C@H](C)c2nc(Cl)c3c(N)nccn23)cc(Cl)c(C)c1-c1ccc(C(=O)O)nc1 [Compound 12] | 67 nM | 1300 nM | 1.7 nM | 870 nM |  |  |  |  |  |  | 
8 | CCOc1c(C(C)c2nc(Cl)c3c(N)nccn23)cc(Cl)c(F)c1-c1ccc(C(=O)N(C)C)nc1 (stereo not shown) [Compound 13, 5-(3-(1-(8-amino-1-chloroimidazo[1,5-a]pyrazin-3-yl)ethyl)-5-chloro-2-ethoxy-6-fluorophenyl)-N,N-dimethylpicolinamide] | 480 nM | 1200 nM | 1.2 nM | 400 nM |  |  |  |  |  |  | 
9 | CCOc1c(C(C)c2nc(Cl)c3c(N)nccn23)cc(Cl)c(C)c1-c1ccc(=O)[nH]c1 (stereo not shown) [Compound 15, 5-(3-(1-(8-amino-1-chloroimidazo[1,5-a]pyrazin-3-yl)ethyl)-5-chloro-2-ethoxy-6-methylphenyl)pyridin-2(1H)-one] | 320 nM | 830 nM | 1.2 nM | 320 nM |  |  |  |  |  |  | 
10 | CC(C)Oc1c(C(C)c2nc(Cl)c3c(N)nccn23)cc(Cl)c(F)c1-c1ccc(C(N)=O)nc1 (stereo not shown) [Compound 17, 5-(3-(1-(8-amino-1-chloroimidazo[1,5-a]pyrazin-3-yl)ethyl)-5-chloro-6-fluoro-2-isopropoxyphenyl)picolinamide] | 1900 nM | 3100 nM | 1.5 nM | 1600 nM |  |  |  |  |  |  | 
11 | CC(C)Oc1c([C@H](C)c2nc(Cl)c3c(N)nccn23)cc(Cl)c(F)c1-c1ccc(C(N)=O)nc1 [Compound 17B] | 520 nM | 970 nM | 0.28 nM | 670 nM |  |  |  |  |  |  | 
12 | CC(C)Oc1c(C(C)c2nc(Cl)c3c(N)nccn23)cc(Cl)c(F)c1-c1ccc(C(=O)O)nc1 (stereo not shown) [Compound 18, 5-(3-(1-(8-amino-1-chloroimidazo[1,5-a]pyrazin-3-yl)ethyl)-5-chloro-6-fluoro-2-isopropoxyphenyl)picolinic Acid] | 340 nM | 7100 nM | 1.3 nM | 1100 nM |  |  |  |  |  |  | 
13 | CC(C)Oc1c([C@H](C)c2nc(Cl)c3c(N)nccn23)cc(Cl)c(F)c1-c1ccc(C(=O)O)nc1 [Compound 18A] | 160 nM | 4600 nM | 0.56 nM | 190 nM |  |  |  |  |  |  | 
14 | COc1c(C(C)c2nc(Br)c3c(N)nccn23)cc(Cl)c(C)c1-c1ccc(C)nc1 (stereo not shown) [Compound 19, 1-bromo-3-(1-(5-chloro-2-methoxy-4-methyl-3-(6-methylpyridin-3-yl)phenyl)ethyl) imidazo[1,5-a]pyrazin-8-amine] |  |  |  |  | 210 nM | 580 nM | 1.3 nM | 180 nM |  |  | 
15 | COc1ccc(-c2c(C)c(Cl)cc(C(C)c3nc(Br)c4c(N)nccn34)c2OC)cn1 (stereo not shown) [Compound 20, 1-bromo-3-(1-(5-chloro-2-methoxy-3-(6-methoxypyridin-3-yl)-4-methylphenyl)ethyl)imidazo[1,5-a]pyrazin-8-amine] | 740 nM | 2300 nM | 3.2 nM | 930 nM |  |  |  |  |  |  | 
16 | COc1c(C(C)c2nc(Br)c3c(N)nccn23)cc(Cl)c(C)c1-c1ccc(Cl)nc1 (stereo not shown) [Compound 22, 1-bromo-3-(1-(5-chloro-3-(6-chloropyridin-3-yl)-2-methoxy-4-methylphenyl)ethyl) imidazo[1,5-a]pyrazin-8-amine] | 760 nM | 1400 nM | 1.5 nM | 390 nM |  |  |  |  |  |  | 
17 | COc1c(C(C)c2nc(Br)c3c(N)nccn23)cc(Cl)c(C)c1-c1ccc(N2CCOCC2)nc1 (stereo not shown) [Compound 23, 1-bromo-3-(1-(5-chloro-2-methoxy-4-methyl-3-(6-morpholinopyridin-3-yl)phenyl)ethyl)imidazo[1,5-a]pyrazin-8-amine] |  |  | 15 nM |  |  |  |  |  | -19% | 16% | 12%
18 | CCOc1c(C(C)c2nc(Br)c3c(N)nccn23)cc(Cl)c(C)c1-c1ccc(C(F)(F)F)nc1 (stereo not shown) [Compound 24, 1-bromo-3-(1-(5-chloro-2-ethoxy-4-methyl-3-(6-(trifluoromethyl)pyridin-3-yl)phenyl)ethyl)imidazo[1,5-a]pyrazin-8-amine] | 2100 nM | 4000 nM | 2.9 nM | 1600 nM |  |  |  |  |  |  | 
19 | CCOc1c(C(C)c2nc(Cl)c3c(N)nccn23)cc(Cl)c(C)c1-c1ccc(C(F)(F)F)nc1 (stereo not shown) [Compound 25, 1-chloro-3-(1-(5-chloro-2-ethoxy-4-methyl-3-(6-(trifluoromethyl)pyridin-3-yl)phenyl)ethyl)imidazo[1,5-a]pyrazin-8-amine] | 1400 nM | 3000 nM | 2.6 nM | 2600 nM |  |  |  |  |  |  | 
20 | CCOc1c(C(C)c2nc(Br)c3c(N)nccn23)cc(Cl)c(C)c1-c1ccc(Cl)nc1 (stereo not shown) [Compound 26, 1-bromo-3-(1-(5-chloro-3-(6-chloropyridin-3-yl)-2-ethoxy-4-methylphenyl)ethyl) imidazo[1,5-a]pyrazin-8-amine] | 500 nM | 1500 nM | 1.4 nM | 330 nM |  |  |  |  |  |  | 
21 | CCOc1c(C(C)c2nc(Cl)c3c(N)nccn23)cc(Cl)c(C)c1-c1ccc(Cl)nc1 (stereo not shown) [Compound 27, 1-chloro-3-(1-(5-chloro-3-(6-chloropyridin-3-yl)-2-ethoxy-4-methylphenyl)ethyl)imidazo[1,5-a]pyrazin-8-amine] | 1400 nM | 3300 nM | 2.5 nM | 1800 nM |  |  |  |  |  |  | 
22 | CCOc1c([C@H](C)c2nc(Cl)c3c(N)nccn23)cc(Cl)c(C)c1-c1ccc(Cl)nc1 [Compound 27A] | 1000 nM | 2200 nM | 1.1 nM | 400 nM |  |  |  |  |  |  | 
23 | CCOc1c(C(C)c2nc(Br)c3c(N)nccn23)cc(Cl)c(C)c1-c1ccc(OC)nc1 (stereo not drawn) [Compound 28, 1-bromo-3-(l-(5-chloro-2-ethoxy-3-(6-methoxypyridin-3-yl)-4-methylphenyl)ethyl)imidazo[1,5-a]pyrazin-8-amine] |  |  |  |  | 740 nM | 2300 nM | 3.2 nM | 930 nM |  |  | 
24 | CCOc1c(C(C)c2nc(Cl)c3c(N)nccn23)cc(Cl)c(C)c1-c1ccc(OC)nc1 (stereo not shown) [Compound 29, 1-chloro-3-(1-(5-chloro-2-ethoxy-3-(6-methoxypyridin-3-yl)-4-methylphenyl)ethyl)imidazo[1,5-a]pyrazin-8-amine] | 1100 nM | 2900 nM | 2.1 nM | 820 nM |  |  |  |  |  |  | 
25 | CCOc1c(C(C)c2nc(Br)c3c(N)nccn23)cc(Cl)c(C)c1-c1ccc(OCCOC)nc1 (stereo not shown) [Compound 30, 1-bromo-3-(1-(5-chloro-2-ethoxy-3-(6-(2-methoxyethoxy)pyridin-3-yl)-4-methylphenyl)ethyl)imidazo[1,5-a]pyrazin-8-amine] | 450 nM | 1800 nM | 2.3 nM | 530 nM |  |  |  |  |  |  | 
